According to patent US11858956B2, “6-aza-nucleoside prodrugs as antiviral agents for treating virus infections” (Southern Research Institute, priority 2020, dated 2024):

Assays:
Assay type in all cases: cell-based
[1] = test system: VEEV; assay: microbe, parasite or virus in culture; details: Venezuelan equine encephalitis virus, NHDF; for EC90: read-out: VEEV (NHDF cells) EC90; for log reduction at 10 µM: read-out: VEEV (NHDF cells) VTR (virus titer reduction)
[2] = test system: WNV; assay: Antiviral activity against WNV in HEK293 cells; details: West Nile virus; for EC90: HEK293, read-out: WNV (HEK293 cells) EC90; for log reduction at 10 µM: HEK293, read-out: WNV (HEK293 cells) VTR (virus titer reduction)
[3] = test system: CHIKV; assay: Antiviral activity against CHIKV in NHDF cells; details: Chikungunya virus; for EC90: read-out: CHIKV (NHDF cells) EC90; for log reduction at 10 µM: read-out: CHIKV (NHDF cells) VTR (virus titer reduction)
[4] = test system: ZIKA; assay: Antiviral activity against ZIKA in HEK 293 cells; details: Zika virus; for EC90: HEK293, read-out: ZIKA (HEK 293 cells) EC90; for log reduction at 10 µM: HEK293, read-out: ZIKA (HEK 293 cells) VTR (virus titer reduction)
[5] = Cytotoxicity (CC50) in HEK293 cells; details: human, WNV
Description: (§1) As used herein, “CC50” is intended to refer to the concentration of a substance (e.g., a compound or a drug) that is required for 50% reduction of cell viability. In one aspect, an CC50 can refer to the concentration of a substance that is required for 50% reduction (i.e., cytotoxicity) in vivo, as further defined elsewhere herein.
The antiviral activity against Alpharviruses evaluated in HEK293 cells (4 hours pre-incubation with compound before infected with virus) is shown in Table 2 below. VTR=Virus titer reduction in log at 10 μM concentration. NT: not tested, ND: not determined

[6] = test system: DENV; assay: Antiviral activity against DENV in HEK293 cells; details: Dengue virus; for EC90: HEK293, read-out: DENV (HEK293 cells) EC90; for log reduction at 10 µM: HEK293, read-out: DENV (HEK293 cells) VTR (virus titer reduction)
[7] = test system: H1N1 strain; assay: Antiviral activity against Influenza H1N1 strain in MDCK cells; details: Influenza A virus; for log reduction at 20 µM: at 20 μM concentration, 4-6 hours pre-incubation, read-out: H1N1 strain (MDCK cells) VTR (virus titer reduction); for EC90: 4-6 hours pre-incubation with compound
Description: (§2) The antiviral activity against Influenza viruses (H1N1 and H3N2 strains) evaluated in MDCK cells (4-6 hours pre-incubation with compound) shown in Table 5 below. VTR=Virus titer reduction in log at 20 μM concentration. NT: not tested, ND: not determined.

[8] = test system: H3N2 strain; assay: Antiviral activity against Influenza H3N2 strain in MDCK cells; details: Influenza A virus; for log reduction at 20 µM: at 20 μM concentration, 4-6 hours pre-incubation, read-out: H3N2 strain (MDCK cells) VTR (virus titer reduction); for EC90: 4-6 hours pre-incubation with compound
Description: as §2

[9] = Cytotoxicity (CC50) in MDCK cells; details: dog, H1N1
Description: as §1, §2

[10] = Cytotoxicity (CC50) in NHDF cells; details: human, CHIKV
Description: as §1
VTR=Virus titer reduction in log at 10 μM concentration. NT: not tested, ND: not determined.

CCOC(=O)[C@H](C)NP(=O)(OC[C@H]1O[C@@H](n2ncc(=O)[nH]c2=O)[C@H](O)[C@@H]1O)Oc1ccccc1 (mixture of isomers) [Compound 6, ethyl ((((2R,3S,4R,5R)-5-(3,5-dioxo-4,5-dihydro-1,2,4-triazin-2(3H)-yl)-3,4-dihydroxytetrahydrofuran-2-yl)methoxy)-(phenoxy)phosphoryl)-L-alaninate]
EC90 [1]: > 10 µM | log reduction at 10 µM [1]: 0 | EC90 [2]: 10 µM | EC90 [3]: > 10 µM | log reduction at 10 µM [3]: 0 | EC90 [4]: 12 µM | CC50 [5]: > 40 µM | EC90 [6]: > 15 µM | log reduction at 20 µM [7]: 1.6 | log reduction at 20 µM [8]: 0.2 | CC50 [9]: > 100 µM | CC50 [10]: > 40 µM

C[C@H](NP(=O)(OC[C@H]1O[C@@H](n2ncc(=O)[nH]c2=O)[C@H](O)[C@@H]1O)Oc1ccccc1)C(=O)OCc1ccccc1 (mixture of isomers) [Compound 2, Benzyl ((((2R,3S,4R,5R)-5-(3,5-dioxo-4,5-dihydro-1,2,4-triazin-2(3H)-yl)-3,4-dihydroxytetrahydrofuran-2-yl)methoxy)-(phenoxy)phosphoryl)-L-alaninate]
EC90 [1]: > 10 µM | log reduction at 10 µM [1]: 0 | EC90 [2]: 1.3 µM | log reduction at 10 µM [2]: 3 | EC90 [3]: 0.4 µM | log reduction at 10 µM [3]: 0 | EC90 [4]: 16 µM | CC50 [5]: > 40 µM | EC90 [6]: 6.9 µM | log reduction at 10 µM [6]: 1.3 | log reduction at 20 µM [7]: 2.3 | log reduction at 20 µM [8]: 0.9 | CC50 [9]: > 100 µM | CC50 [10]: > 40 µM

COC(=O)[C@H](C)NP(=O)(OC[C@H]1O[C@@H](n2ncc(=O)[nH]c2=O)[C@H](O)[C@@H]1O)Oc1ccccc1 (mixture of isomers) [Compound 7, methyl ((((2R,3S,4R,5R)-5-(3,5-dioxo-4,5-dihydro-1,2,4-triazin-2(3H)-yl)-3,4-dihydroxytetrahydrofuran-2-yl)methoxy)-(phenoxy)phosphoryl)-L-alaninate]
EC90 [1]: > 10 µM | log reduction at 10 µM [1]: 0 | EC90 [2]: 4.3 µM | log reduction at 10 µM [2]: 2.6 | EC90 [3]: > 10 µM | log reduction at 10 µM [3]: 0 | EC90 [4]: 7.6 µM | log reduction at 10 µM [4]: 1.3 | CC50 [5]: 40 µM | EC90 [6]: 5 µM | log reduction at 10 µM [6]: 3.2 | log reduction at 20 µM [7]: 3.4 | log reduction at 20 µM [8]: 1.6 | CC50 [9]: > 100 µM | CC50 [10]: > 40 µM

CC(C)COC(=O)[C@H](C)N[P@](=O)(OC[C@H]1O[C@@H](n2ncc(=O)[nH]c2=O)[C@H](O)[C@@H]1O)Oc1cccc2ccccc12 [Compound 8, isobutyl ((((2R,3S,4R,5R)-5-(3,5-dioxo-4,5-dihydro-1,2,4-triazin-2(3H)-yl)-3,4-dihydroxytetrahydrofuran-2-yl)-methoxy)(naphthalen-1-yloxy)phosphoryl)-L-alaninate]
EC90 [1]: > 10 µM | log reduction at 10 µM [1]: 0.21 | EC90 [2]: 2.9 µM | log reduction at 10 µM [2]: 2.8 | EC90 [3]: > 10 µM | log reduction at 10 µM [3]: 0 | EC90 [4]: 6 µM | log reduction at 10 µM [4]: 1.6 | CC50 [5]: > 40 µM | EC90 [6]: 3.9 µM | log reduction at 10 µM [6]: 2.3 | log reduction at 20 µM [7]: 3.4 | log reduction at 20 µM [8]: 1.6 | CC50 [9]: > 100 µM | CC50 [10]: > 40 µM

C[C@H](NP(=O)(OC[C@H]1O[C@@H](n2ncc(=O)[nH]c2=O)[C@H](O)[C@@H]1O)Oc1ccccc1)C(=O)OCc1ccc([N+](=O)[O-])o1 (mixture of isomers) [Compound 1, (5-nitrofuran-2-yl)methyl ((((2R,3S,4R,5R)-5-(3,5-dioxo-4,5-dihydro-1,2,4-triazin-2(3H)-yl)-3,4-dihydroxytetra-hydrofuran-2-yl)methoxy)(phenoxy)phosphoryl)-L-alaninate]
EC90 [1]: > 10 µM | log reduction at 10 µM [1]: 0.85 | EC90 [2]: 0.6 µM | log reduction at 10 µM [2]: 3.8 | EC90 [3]: 0.95 µM | log reduction at 10 µM [3]: 4.3 | EC90 [4]: 3.2 µM | log reduction at 10 µM [4]: 2.2 | CC50 [5]: 40 µM | EC90 [6]: 1.9 µM | log reduction at 10 µM [6]: 2.4 | log reduction at 20 µM [7]: 1.6 | log reduction at 20 µM [8]: 0.6 | CC50 [9]: > 100 µM | CC50 [10]: > 40 µM

CC[C@H](C)[C@H](N)C(=O)OC[C@H]1O[C@@H](n2ncc(=O)[nH]c2=O)[C@H](O)[C@@H]1O [Compound 10, ((2r,3s,4r,5r)-5-(3,5-dioxo-4,5-dihydro-1,2,4-triazin-2(3H)-yl)-3,4-dihydroxytetrahydrofuran-2-yl)methyl L-isoleucinate]
EC90 [1]: 0.62 µM | log reduction at 10 µM [1]: 3.51 | EC90 [2]: 0.2 µM | log reduction at 10 µM [2]: 3.9 | EC90 [3]: > 10 µM | log reduction at 10 µM [3]: 0.39 | EC90 [4]: 0.5 µM | log reduction at 10 µM [4]: 3.1 | CC50 [5]: 29 µM | EC90 [6]: 0.3 µM | log reduction at 10 µM [6]: 3.4 | EC90 [7]: 3.68 µM | log reduction at 20 µM [7]: 3.4 | EC90 [8]: 3.33 µM | log reduction at 20 µM [8]: 3.4 | CC50 [9]: 19.3 µM | CC50 [10]: > 40 µM

CC(C)COC(=O)[C@H](C)NP(=O)(OC[C@H]1O[C@@H](n2ncc(=O)[nH]c2=O)C(O)[C@H]1O)Oc1ccccc1 (stereo in doubt) [Compound 4, 2-isobutyl ((((2R,3S,4R,5R)-5-(3,5-dioxo-4,5-dihydro-1,2,4-triazin-2(3H)-yl)-3,4-dihydroxytetrahydrofuran-2-yl)methoxy)(phenoxy)phosphoryl)-L-alaninate]
EC90 [1]: 8.9 µM | log reduction at 10 µM [1]: 1.18 | EC90 [2]: 1.2 µM | log reduction at 10 µM [2]: 3.1 | EC90 [3]: > 10 µM | log reduction at 10 µM [3]: 0 | EC90 [4]: 4.8 µM | log reduction at 10 µM [4]: 2 | CC50 [5]: 40 µM | EC90 [6]: 2 µM | log reduction at 10 µM [6]: 2.2 | log reduction at 20 µM [7]: 3.4 | log reduction at 20 µM [8]: 1.3 | CC50 [9]: > 100 µM | CC50 [10]: > 40 µM

CCCC(CCC)C(=O)Nc1cnn([C@@H]2O[C@H](CO)[C@@H](O)[C@H]2O)c(=O)n1 [Compound 18, N-(2-((2r,3r,4s,5r)-3,4-dihydroxy-5-(hydroxymethyl)-tetrahydrofuran-2-yl)-3-oxo-2,3-dihydro-1,2,4-triazin-5-yl)-2-propylpentanamide]
EC90 [1]: > 10 µM | log reduction at 10 µM [1]: 0.13 | EC90 [2]: 0.4 µM | log reduction at 10 µM [2]: 2.8 | EC90 [3]: 3.2 µM | log reduction at 10 µM [3]: 1.42 | EC90 [4]: 0.1 µM | log reduction at 10 µM [4]: 2.7 | CC50 [5]: 30.8 µM | EC90 [6]: 0.2 µM | log reduction at 10 µM [6]: 4 | EC90 [7]: 0.66 µM | log reduction at 20 µM [7]: 3.3 | EC90 [8]: 2.78 µM | log reduction at 20 µM [8]: 3.4 | CC50 [9]: 19.6 µM | CC50 [10]: > 40 µM
